Values of other authors as cited in article PMC3991022, “Comparison of Functional Protein Transduction Domains Using the NEMO Binding Domain Peptide” (Pharmaceuticals, 2010).

Test system: mouse model of collagen induced arthritis
Set-up: method as in PMID 15156202
Settings: injection of NBD peptide

TALDWSWLQTE [NBD peptide]
amelioration of arthritis: significantly ameliorated the arthritis
